This is an account of results in US7432275B2, “Carboxylic acid, phosphate or phosphonate substituted quinazolin-4-ylamine analogues as capsaicin receptor modulators” (Neurogen Corporation, priority 2002, dated 2008).

pKi: −log10 of the molar value.

The first test deals with T1, human capsaicin receptor (Homo sapiens, UniProt Q8NER1). The test can be described thus: Capsaicin receptor binding assay ([3H]RTX competition, membranes of VR1-transfected HEK293 cells).
T1 sequence (Q8NER1 whole entry): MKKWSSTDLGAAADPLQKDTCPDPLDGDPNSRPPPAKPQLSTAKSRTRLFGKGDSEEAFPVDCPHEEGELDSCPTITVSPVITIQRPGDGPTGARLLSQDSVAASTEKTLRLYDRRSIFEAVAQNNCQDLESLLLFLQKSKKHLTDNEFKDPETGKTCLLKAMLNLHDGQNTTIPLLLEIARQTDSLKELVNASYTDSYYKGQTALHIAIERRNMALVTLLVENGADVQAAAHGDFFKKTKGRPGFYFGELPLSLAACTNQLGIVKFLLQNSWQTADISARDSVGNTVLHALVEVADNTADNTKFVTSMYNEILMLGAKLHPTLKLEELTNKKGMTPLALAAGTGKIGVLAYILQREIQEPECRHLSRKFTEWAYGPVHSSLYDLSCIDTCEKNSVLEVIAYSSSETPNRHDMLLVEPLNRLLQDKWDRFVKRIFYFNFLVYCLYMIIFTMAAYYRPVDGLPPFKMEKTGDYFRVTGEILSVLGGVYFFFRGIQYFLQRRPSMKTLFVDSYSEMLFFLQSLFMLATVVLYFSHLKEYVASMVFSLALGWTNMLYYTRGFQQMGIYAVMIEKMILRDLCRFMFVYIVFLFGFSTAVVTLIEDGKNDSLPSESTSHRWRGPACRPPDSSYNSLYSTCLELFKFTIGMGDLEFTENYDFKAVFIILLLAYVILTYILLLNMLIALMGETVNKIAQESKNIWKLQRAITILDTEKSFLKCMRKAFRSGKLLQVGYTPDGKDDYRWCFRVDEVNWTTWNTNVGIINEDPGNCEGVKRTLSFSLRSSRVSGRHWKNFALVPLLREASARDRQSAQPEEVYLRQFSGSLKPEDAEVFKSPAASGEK
Conditions: not given
From the text:
This Example illustrates the preparation of VR1-transfected cells and membrane preparations for use in binding assays (Example 5) and functional assays (Example 6).
This Example illustrates a representative assay of capsaicin receptor binding that may be used to determine the binding affinity of compounds for the capsaicin (VR1) receptor.
Binding studies with [^3H] […] 262:883-888.
In general, pKi refers to the Ki on a negative log10 scale, so that one unit is a factor of ten. `CCOP(=O)(Cc1nc(Nc2ccc(C(F)(F)F)cc2)c2ccc(-c3ncccc3C)cc2n1)OCC` [Compound 5, [7-(3-Methyl-pyridin-2-yl)-4-(4-trifluoromethyl-phenylamino)-quinazolin-2-ylmethyl]-phosphonicacid diethyl ester] showed a pKi of over 6.00.

`CCOP(=O)(Cc1nc(Nc2ccc(C(C)(C)C)cc2)c2ccc(-c3ncccc3C)cc2n1)OCC` [Compound 16, [4-(4-tert-Butyl-phenylamino)-7-(3-methyl-pyridin-2-yl)-quinazolin-2-ylmethyl]-phosphonic acid diethylester]: the pKi was over 6.00.

As to `CCOP(=O)(Cc1nc(Nc2ccc(C(C)(C)C)cc2)c2ccc(-c3ncccc3C(F)(F)F)cc2n1)OCC` [Compound 17, [4-(4-tert-Butyl-phenylamino)-7-(3-trifluoromethyl-pyridin-2-yl)-quinazolin-2-ylmethyl]-phosphonicacid diethyl ester], the pKi was over 6.00.

As for `CCOP(=O)(O)Cc1nc(Nc2ccc(C(C)(C)C)cc2)c2ccc(-c3ncccc3C(F)(F)F)cc2n1` [Compound 18, [4-(4-tert-Butyl-phenylamino)-7-(3-trifluoromethyl-pyridin-2-yl)-quinazolin-2-ylmethyl]-phosphonicacid monoethyl ester], the pKi was over 6.00.

Still in this test, the particulars now being: determined as described in Example 5; read-out: Ki.
Take `O=C(O)CNc1nc(Nc2ccc(C(F)(F)F)cc2)c2ccc(-c3ncccc3C(F)(F)F)cc2n1` [Compound 3, [4-(4-Trifluoromethyl-phenylamino)-7-(3-trifluoromethyl-pyridin-2-yl)-quinazolin-2-ylamino]-acetic acid]: the pKi was over 6.00.

Turning to `CC(C)(C)c1ccc(Nc2nc(COP(=O)(OCc3ccccc3)OCc3ccccc3)nc3cc(-c4ncccc4C(F)(F)F)ccc23)cc1` [Compound 6, Phosphoric acid dibenzyl ester 4-(4-tert-butyl-phenylamino)-7-(3-trifluoromethyl-pyridin-2-yl)-quinazolin-2-ylmethyl ester], the pKi was over 6.00.

Take `CC(C)(C)c1ccc(Nc2nc(COP(=O)(O)O)nc3cc(-c4ncccc4C(F)(F)F)ccc23)cc1` [Compound 7, Phosphoric acid mono-[4-(4-tert-butyl-phenylamino)-7-(3-trifluoromethyl-pyridin-2-yl)-quinazolin-2-ylmethyl] ester]: the pKi is over 6.00.

`O=P(OCc1ccccc1)(OCc1ccccc1)OCc1nc(Nc2ccc(C(F)(F)F)cc2)c2ccc(-c3ncccc3C(F)(F)F)cc2n1` [Compound 8, Phosphoric acid dibenzyl ester 4-(4-trifluoromethyl-phenylamino)-7-(3-trifluoromethyl-pyridin-2-yl)-quinazolin-2-ylmethyl ester]: the pKi is over 6.00.

As to `CC(C)(C)c1ccc(Nc2ncnc3cc(-c4ncccc4C(F)(F)F)cnc23)cc1OCC(=O)O` [Compound 13, {2-tert-Butyl-5-[7-(3-trifluoromethyl-pyridin-2-yl)-pyrido[3,2-d]pyrimidin-4-ylamino]-phenoxy}-acetic acid], the negative-log Ki (pKi) is over 6.00.

On to `Cc1nc(Nc2ccc(C(C)(C)C(=O)O)cc2)c2ccc(-c3ncccc3C)nc2n1` [Compound 19, 2-Methyl-2-{4-[2-methyl-7-(3-methyl-pyridin-2-yl)-pyrido[2,3-d]pyrimidin-4-ylamino]-phenyl}-propionic acid], for which the pKi was over 6.00.

As to `CC(C)(C)c1ccc(Nc2ncnc3cc(-c4ncccc4C(F)(F)F)ccc23)cc1OCCN1CCC[C@H]1C(=O)O` [Compound 22, (S)-1-(2-{2-tert-Butyl-5-[7-(3-trifluoromethyl-pyridin-2-yl)-quinazolin-4-ylamino]-phenoxy}-ethyl)-pyrrolidine-2-carboxylic acid], the pKi was over 6.00.

With `CC(C)(C)c1ccc(Nc2ncnc3cc(-c4ncccc4C(F)(F)F)ccc23)cc1OCCOP(=O)(O)O` [Compound 31, Phosphoric acid mono-(2-{2-tert-butyl-5-[7-(3-trifluoromethyl-pyridin-2-yl)-quinazolin-4-ylamino]-phenoxy}-ethyl) ester], the pKi was over 6.00.

Regarding `CC(C)(C)c1ccc(Nc2nc(CP(=O)(O)O)nc3cc(-c4ncccc4C(F)(F)F)ccc23)cc1` [Compound 32, [4-(4-tert-Butyl-phenylamino)-7-(3-trifluoromethyl-pyridin-2-yl)-quinazolin-2-ylmethyl]-phosphonicacid], the pKi was over 6.00.

With `CC(C)(C)c1ccc(Nc2nc(N3CCC(C(=O)O)CC3)nc3nc(-c4ncccc4C(F)(F)F)ccc23)cc1` [Compound 44, 1-[4-(4-tert-Butyl-phenylamino)-7-(3-trifluoromethyl-pyridin-2-yl)-pyrido[2,3-d]pyrimidin-2-yl]-piperidine-4-carboxylic acid], the pKi was over 6.00.

Turning to `COCc1nc2nc(-c3ncccc3C(F)(F)F)ccc2c(Nc2ccc(C(F)(F)F)cc2)c1C(=O)O` [Compound 45, 2-Methoxymethyl-4-(4-trifluoromethyl-phenylamino)-7-(3-trifluoromethyl-pyridin-2-yl)-[1,8]naphthyridine-3-carboxylic acid], the pKi is over 6.00.

The target in another test is T1, human capsaicin receptor. Put plainly: Calcium mobilization assay. Type of test: cell-based. Conditions: capsaicin used as positive control; read-out: approximate EC90 concentration. How it is done:
Cells transfected with expression plasmids (as described in Example 4) and thereby expressing human capsaicin receptor are seeded and grown to 70-90% confluency in FALCON black-walled, clear-bottomed 96-well plates (#3904, BECTON-DICKINSON, Franklin Lakes, N.J.). […] After the incubation, the dye is emptied from the plates, and the cells are washed once with KRH buffer, and resuspended in KRH buffer.
To measure the ability of a test compound to agonize or antagonize a calcium mobilization response in cells expressing capsaicin receptors to capsaicin or other vanilloid agonist, the EC50 of the agonist capsaicin is first determined. An additional 20 μl of KRH buffer and 1 μl DMSO is added to each well of cells, prepared as described above. 100 μl capsaicin in KRH buffer is automatically transferred by the FLIPR instrument to each well. Capsaicin-induced calcium mobilization is monitored using either FLUOROSKAN ASCENT (Labsystems; Franklin, Mass.) or FLIPR (fluorometric imaging plate reader system; Molecular Devices, Sunnyvale, Calif.) instruments. […] In this equation, y is the maximum fluorescence signal, x is the concentration of the agonist or antagonist (in this case, capsaicin), a is the Emax, b corresponds to the EC50 value and c is the Hill coefficient. […]
In general terms: Calcium flux is commonly read through the fluorescence of an indicator in the cells.
On to `COc1cc(CNC(=O)CCCC/C=C/C(C)C)ccc1O` [capsaicin], for which the EC90 was about 100 nM.
